Test results taken from PubChem BioAssay AID2060511 (Molecular Pharmacology Branch, DTP, NCI, 2025).

System: 422866-222-R5-J1-PDC spheroids with HUVEC/MSC, viability
Assay: Anticancer human tumor 422866-222-R5-J1-PDC patient-derived pancreatic adenocarcinoma cell line growth inhibition [GQUAD]
Details: for IC50: curve of first compound; for viability, T/C: stronger effect = lower value; active = viability on the fitted dose curve at most 10% of control; inactive = the rest
In short: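 Multi-cell-type spheroids of tumor cells with HUVEC and mesenchymal stem cells, treated with drug combinations. Concentrations descend in half-log steps from near clinical Cmax, or from 10 microM where Cmax is unknown; viability read-out.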

[1] = second compound 0.0316 µM, first compound 0.0316 µM
[2] = second compound 0.0316 µM, first compound 0.1 µM
[3] = second compound 0.0316 µM, first compound 0.316 µM
[4] = second compound 0.0316 µM, first compound 1 µM
[5] = second compound 0.0316 µM, first compound 3.16 µM
[6] = second compound 0.0316 µM, first compound 10 µM
[7] = second compound 0.1 µM, first compound 0.0316 µM
[8] = second compound 0.1 µM, first compound 0.1 µM
[9] = second compound 0.1 µM, first compound 0.316 µM
[10] = second compound 0.1 µM, first compound 1 µM
[11] = second compound 0.1 µM, first compound 3.16 µM
[12] = second compound 0.1 µM, first compound 10 µM
[13] = second compound 0.316 µM, first compound 0.0316 µM
[14] = second compound 0.316 µM, first compound 0.1 µM
[15] = second compound 0.316 µM, first compound 0.316 µM
[16] = second compound 0.316 µM, first compound 1 µM
[17] = second compound 0.316 µM, first compound 3.16 µM
[18] = second compound 0.316 µM, first compound 10 µM
[19] = second compound 1 µM, first compound 0.0316 µM
[20] = second compound 1 µM, first compound 0.1 µM
[21] = second compound 1 µM, first compound 0.316 µM
[22] = second compound 1 µM, first compound 1 µM
[23] = second compound 1 µM, first compound 3.16 µM
[24] = second compound 1 µM, first compound 10 µM
[25] = second compound 3.16 µM, first compound 0.0316 µM
[26] = second compound 3.16 µM, first compound 0.1 µM
[27] = second compound 3.16 µM, first compound 0.316 µM
[28] = second compound 3.16 µM, first compound 1 µM
[29] = second compound 3.16 µM, first compound 3.16 µM
[30] = second compound 3.16 µM, first compound 10 µM
[31] = second compound 10 µM, first compound 0.0316 µM
[32] = second compound 10 µM, first compound 0.1 µM
[33] = second compound 10 µM, first compound 0.316 µM
[34] = second compound 10 µM, first compound 1 µM
[35] = second compound 10 µM, first compound 3.16 µM
[36] = second compound 10 µM, first compound 10 µM
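Note: spheroids exposed to compounds for seven days before reading.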
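Throughout, for viability, T/C: percent viability relative to DMSO vehicle control taken as 100%.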

CC(=O)O[C@H]1C(=O)[C@@]2(C)[C@H]([C@H](OC(=O)c3ccccc3)[C@]3(O)C[C@H](OC(=O)[C@H](O)[C@@H](NC(=O)c4ccccc4)c4ccccc4)C(C)=C1C3(C)C)[C@]1(OC(C)=O)CO[C@@H]1C[C@@H]2O + Cc1[nH]c2ccc(F)cc2c1-c1nc2c3cccnc3c3ncccc3c2[nH]1
0.671 µM: IC50 (second compound 0.0316 µM)
inactive: viability, T/C [1] 143% | viability, T/C [2] 143% | viability, T/C [3] 74.7% | viability, T/C [4] 39% | viability, T/C [5] 44.4% | viability, T/C [6] 1.31% | viability, T/C [7] 109% | viability, T/C [8] 128% | viability, T/C [9] 100% | viability, T/C [10] 48.5% | viability, T/C [11] 37.1% | viability, T/C [12] 2.15% | viability, T/C [13] 122% | viability, T/C [14] 107% | viability, T/C [15] 99.5% | viability, T/C [16] 55.3% | viability, T/C [17] 46.9% | viability, T/C [19] 117% | viability, T/C [20] 115% | viability, T/C [21] 98.5% | viability, T/C [22] 53.4% | viability, T/C [23] 42% | viability, T/C [25] 70.5% | viability, T/C [26] 75% | viability, T/C [27] 95% | viability, T/C [28] 43.4% | viability, T/C [29] 50% | viability, T/C [31] 56.1% | viability, T/C [32] 62% | viability, T/C [33] 58.2% | viability, T/C [34] 46.6% | viability, T/C [35] 49.7%
active: viability, T/C [18] 3.01% | viability, T/C [24] 2.03% | viability, T/C [30] 3.32% | viability, T/C [36] 4.03%
1.72 µM: IC50 (second compound 1 µM)
1.3 µM: IC50 (second compound 0.1 µM)
2.04 µM: IC50 (second compound 0.316 µM) | IC50 (second compound 10 µM)
2.16 µM: IC50 (second compound 3.16 µM)

C#Cc1c(F)ccc2cc(O)cc(-c3ncc4c(N5CC6CCC(C5)N6)nc(OCC56CCCN5CC(F)C6)nc4c3F)c12 (stereo not given) + Cc1cnc(CNC(=O)c2c(=O)c3ccc(N4CCCN(C)CC4)nc3n3c2sc2ccccc23)cn1
1.36 µM: IC50 (second compound 10 µM)
2.32 µM: IC50 (second compound 3.16 µM)
inactive: viability, T/C [1] 95.9% | viability, T/C [2] 87% | viability, T/C [3] 72% | viability, T/C [4] 57.1% | viability, T/C [5] 43% | viability, T/C [6] 29.5% | viability, T/C [7] 98.4% | viability, T/C [8] 97.9% | viability, T/C [9] 69.7% | viability, T/C [10] 55.3% | viability, T/C [11] 42.5% | viability, T/C [12] 30.7% | viability, T/C [13] 97% | viability, T/C [14] 79.4% | viability, T/C [15] 75.4% | viability, T/C [16] 65.6% | viability, T/C [17] 49.8% | viability, T/C [18] 36.1% | viability, T/C [19] 95.8% | viability, T/C [20] 86.3% | viability, T/C [21] 73.6% | viability, T/C [22] 57.4% | viability, T/C [23] 55% | viability, T/C [24] 39.7% | viability, T/C [25] 77.4% | viability, T/C [26] 85.1% | viability, T/C [27] 78.8% | viability, T/C [28] 58.2% | viability, T/C [29] 49.7% | viability, T/C [30] 37% | viability, T/C [31] 70.5% | viability, T/C [32] 82% | viability, T/C [33] 73% | viability, T/C [34] 52.4% | viability, T/C [35] 43.3% | viability, T/C [36] 34.4%
1.76 µM: IC50 (second compound 0.0316 µM)
3.46 µM: IC50 (second compound 1 µM)
1.41 µM: IC50 (second compound 0.1 µM)
3.22 µM: IC50 (second compound 0.316 µM)

O=C(c1cc(Cc2n[nH]c(=O)c3ccccc23)ccc1F)N1CCN(C(=O)C2CC2)CC1 + Cc1cnc(CNC(=O)c2c(=O)c3ccc(N4CCCN(C)CC4)nc3n3c2sc2ccccc23)cn1
> 10 µM: IC50 (second compound 0.0316 µM) | IC50 (second compound 0.1 µM) | IC50 (second compound 0.316 µM) | IC50 (second compound 1 µM) | IC50 (second compound 3.16 µM) | IC50 (second compound 10 µM)
inactive: viability, T/C [1] 108% | viability, T/C [2] 89% | viability, T/C [3] 84.8% | viability, T/C [4] 83.4% | viability, T/C [5] 80.5% | viability, T/C [6] 65.2% | viability, T/C [7] 91.9% | viability, T/C [8] 84.4% | viability, T/C [9] 80.5% | viability, T/C [10] 83.7% | viability, T/C [11] 80.2% | viability, T/C [12] 77.6% | viability, T/C [13] 74% | viability, T/C [14] 77.9% | viability, T/C [15] 78.8% | viability, T/C [16] 84% | viability, T/C [17] 85.2% | viability, T/C [18] 77.1% | viability, T/C [19] 76.2% | viability, T/C [20] 76.6% | viability, T/C [21] 84% | viability, T/C [22] 76.5% | viability, T/C [23] 80.3% | viability, T/C [24] 70.4% | viability, T/C [25] 83.3% | viability, T/C [26] 73.7% | viability, T/C [27] 83.2% | viability, T/C [28] 91.2% | viability, T/C [29] 83.6% | viability, T/C [30] 76.5% | viability, T/C [31] 70% | viability, T/C [32] 79.4% | viability, T/C [33] 77.8% | viability, T/C [34] 72.7% | viability, T/C [35] 89.5% | viability, T/C [36] 69.2%

CCCS(=O)(=O)Nc1ccc(F)c(C(=O)c2c[nH]c3ncc(-c4ccc(Cl)cc4)cc23)c1F + CN(C)c1ccc(Nc2c3ccc(NC(=O)CCN4CCCC4)cc3nc3cc(NC(=O)CCN4CCCC4)ccc23)cc1
> 10 µM: IC50 (second compound 0.0316 µM) | IC50 (second compound 0.1 µM) | IC50 (second compound 0.316 µM) | IC50 (second compound 1 µM) | IC50 (second compound 3.16 µM) | IC50 (second compound 10 µM)
inactive: viability, T/C [1] 95.8% | viability, T/C [2] 117% | viability, T/C [3] 121% | viability, T/C [4] 136% | viability, T/C [5] 164% | viability, T/C [6] 130% | viability, T/C [7] 112% | viability, T/C [8] 91.6% | viability, T/C [9] 112% | viability, T/C [10] 137% | viability, T/C [11] 203% | viability, T/C [12] 128% | viability, T/C [13] 98% | viability, T/C [14] 108% | viability, T/C [15] 122% | viability, T/C [16] 143% | viability, T/C [17] 158% | viability, T/C [18] 127% | viability, T/C [19] 74.3% | viability, T/C [20] 88.3% | viability, T/C [21] 113% | viability, T/C [22] 112% | viability, T/C [23] 196% | viability, T/C [24] 130% | viability, T/C [25] 83.8% | viability, T/C [26] 97.7% | viability, T/C [27] 97% | viability, T/C [28] 157% | viability, T/C [29] 189% | viability, T/C [30] 154% | viability, T/C [31] 90.3% | viability, T/C [32] 90.2% | viability, T/C [33] 123% | viability, T/C [34] 131% | viability, T/C [35] 129% | viability, T/C [36] 153%

COc1cc(C2c3cc4c(cc3C(OC3OC5COC(C)OC5C(O)C3O)C3COC(=O)C23)OCO4)cc(OC)c1O (stereo not given) + Cc1cnc(CNC(=O)c2c(=O)c3ccc(N4CCCN(C)CC4)nc3n3c2sc2ccccc23)cn1
3.77 µM: IC50 (second compound 0.0316 µM)
inactive: viability, T/C [1] 98.4% | viability, T/C [2] 78.3% | viability, T/C [3] 83.7% | viability, T/C [4] 59.4% | viability, T/C [5] 53.5% | viability, T/C [6] 39.1% | viability, T/C [7] 92.8% | viability, T/C [8] 79.2% | viability, T/C [9] 77.6% | viability, T/C [10] 66.8% | viability, T/C [11] 59.2% | viability, T/C [12] 49.7% | viability, T/C [13] 81.6% | viability, T/C [14] 94.8% | viability, T/C [15] 84% | viability, T/C [16] 80.9% | viability, T/C [17] 71.8% | viability, T/C [18] 58.9% | viability, T/C [19] 81.9% | viability, T/C [20] 92% | viability, T/C [21] 91.4% | viability, T/C [22] 91.4% | viability, T/C [23] 81.1% | viability, T/C [24] 56% | viability, T/C [25] 84.6% | viability, T/C [26] 87.3% | viability, T/C [27] 82.4% | viability, T/C [28] 85.5% | viability, T/C [29] 81.6% | viability, T/C [30] 60% | viability, T/C [31] 86.2% | viability, T/C [32] 80.4% | viability, T/C [33] 85.5% | viability, T/C [34] 93.2% | viability, T/C [35] 85.1% | viability, T/C [36] 52.1%
> 10 µM: IC50 (second compound 0.1 µM) | IC50 (second compound 0.316 µM) | IC50 (second compound 1 µM) | IC50 (second compound 3.16 µM) | IC50 (second compound 10 µM)
